According to patent US8785422B2, “A-ring modified 19-nor-vitamin D analogs and their uses” (Wisconsin Alumni Research Foundation, priority 2012, dated 2014):
Entries after “also recorded” stand apart in the source; their conditions may differ.

Assays:
[1] = test system: Human promyelocyte leukemia (HL60) cells; assay: HL-60 differentiation (nitro blue tetrazolium reduction); format: cell-based; details: four days, FIG. 2
Procedure: The study drugs were dissolved in ethanol and the concentrations determined using UV spectrophotometry. Serial dilutions were prepared so that a range of drug concentrations could be tested without changing the final concentration of ethanol (≦0.2%) present in the cell cultures.
Human promyelocyte leukemia (HL60) cells were grown in RPMI-1640 medium containing 10% fetal bovine serum. The cells were incubated at 37° C. in the presence of 5% CO2.
HL60 cells were plated at 1.2×10^5 cells/ml. Eighteen hours after plating, cells in duplicate were treated with drug. Four days later, the cells were harvested and a nitro blue tetrazolium reduction assay was performed. (See Collins et al., 1979: J. Exp. Med. 149:969-974), The percentage of differentiated cells was determined by counting a total of 200 cells and recording the number that, contained intracellular black-blue formazan deposits. Verification of differentiation to monocytic cells was determined by measuring phagocytic activity.

[2] = test system: bone calcium mobilization; assay: Bone calcium mobilization (serum calcium) in vitamin D-deficient rats; format: in vivo, Sprague-Dawley rats; details: low calcium diet (0.02%), ip once daily for 4 consecutive days, DA2HE up to 35100 pmol/day, FIG. 4
Excerpt: (§1) Intestinal Calcium Transport and Bone Calcium Mobilization Male, weanling Sprague-Dawley rats were placed on Diet 11 (see Suda et al., J. Nutr. 100:1049, 1970) (0.47% Ca)+vitamins AEK for one week followed by Diet 11 (0.02% Ca)+vitamins AEK for 3 weeks. The rats were then switched to the same diet containing 0.47% Ca for one week followed by two weeks on the same diet containing 0.02% Ca. Dose administration began during the last week on 0.02% calcium diet. Four consecutive ip doses were given approximately 24 hours apart. Twenty-four hours after the last dose, blood was collected from the severed neck and the concentration of serum calcium determined by atomic absorption spectrometry as a measure of bone calcium mobilization. The first 10 cm of the intestine was also collected for intestinal calcium transport analysis using the everted gut sac method.

[3] = test system: 24-hydroxylase (24 Ohase) gene promoter upstream of a luciferase reporter gene in ROS 1.7/2.8 (bone) cells; assay: In vitro transcription assay (luciferase reporter); format: cell-based; details: 24-hydroxylase promoter luciferase, sixteen hours after dosing; FIG. 3; read-out: EC50, stimulation of gene transcription in bone cells
Procedure: In Vitro Transcription Assay.
Transcription activity was measured in ROS 1.7/2.8 (bone) cells that were stably transfected with a 24-hydroxylase (24 Ohase) gene promoter upstream of a luciferase reporter gene. (See Arbour et al., 1998). Cells were given a range of doses. Sixteen hours after dosing the cells were harvested and luciferase activities were measured using a luminometer. RLU=relative luciferase units.

[4] = test system: intestinal calcium transport; assay: Intestinal calcium transport (everted gut sac) in vitamin D-deficient rats; format: in vivo, Sprague-Dawley rats; details: 4 consecutive ip doses, FIG. 5
Excerpt: as §1

[5] = target: T1, full-length recombinant rat vitamin D receptor (Rattus norvegicus, UniProt P13053); assay: Vitamin D receptor binding, competition with [3H]-1,25(OH)2D3; details: FIG. 1
T1 construct: Full-length recombinant rat receptor was expressed in E. coli BL21 (DE3) Codon Plus RIL cells; histidine tag (C); made in house; host or cells: E. coli BL21 (DE3) Codon Plus RIL
T1 sequence (P13053 1-423): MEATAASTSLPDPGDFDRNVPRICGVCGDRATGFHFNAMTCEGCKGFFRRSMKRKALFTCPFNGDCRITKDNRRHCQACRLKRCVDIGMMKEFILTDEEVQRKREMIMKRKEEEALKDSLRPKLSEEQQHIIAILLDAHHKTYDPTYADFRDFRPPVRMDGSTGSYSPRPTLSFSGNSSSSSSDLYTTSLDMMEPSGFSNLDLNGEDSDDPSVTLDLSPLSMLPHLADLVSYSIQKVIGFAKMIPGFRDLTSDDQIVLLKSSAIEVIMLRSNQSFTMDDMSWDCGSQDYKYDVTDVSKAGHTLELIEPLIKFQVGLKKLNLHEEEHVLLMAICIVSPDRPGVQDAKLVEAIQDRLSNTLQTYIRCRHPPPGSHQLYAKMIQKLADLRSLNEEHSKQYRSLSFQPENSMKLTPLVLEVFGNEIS
Excerpt: Vitamin D Receptor Binding
Full-length recombinant rat receptor was expressed in E. coli BL21 (DE3) Codon Plus RIL cells and purified to homogeneity using two different column chromatography systems. The first system was a nickel affinity resin that utilizes the C-terminal histidine tag on this protein. The protein that was eluted from this resin was further purified using ion exchange chromatography (S-Sepharose Fast Flow). Aliquots of the purified protein were quick frozen in liquid nitrogen and stored at −80° C. until use. For use in binding assays, the protein was diluted in TEDK50 (50 mM Tris, 1.5 mM EDTA, pH 7.4, 5 mM DTT, 150 mM KCI) with 0.1% Chaps detergent. The receptor protein and ligand concentration was optimized such that no more than 20% of the added radiolabeled ligand was bound to the receptor.
Assay Conditions. Radiolabeled and unlabeled ligands were added to 100 mcl of the diluted protein at a final ethanol concentration of ≦10%, mixed and incubated overnight on ice to reach binding equilibrium. The following day, 100 mcl of hydroxylapatite slurry (50%) was added to each tube and mixed at 10-minute intervals for 30 minutes. The hydroxylapaptite was collected by centrifugation and then washed three times with Tris-EDTA buffer (50 mM Tris, 1.5 mM EDTA, phi 7.4) containing 0.5% Triton X-100. After the final wash, the pellets were transferred to scintillation vials containing 4 ml of Biosafe II scintillation cocktail, mixed and placed in a scintillation counter. Total binding was determined from the tubes containing only radiolabeled ligand.

| Compound | EC50 [1] [nM] | bone calcium mobilization activity (serum calcium) [2] | EC50 [3] [nM] | potency in promoting active calcium transport across the gut relative to 1α,25(OH)2D3 [4] | intestinal calcium transport activity ([4]; low calcium diet (0.02%), everted gut sac) | EC50 ([1]; Homo sapiens, HL-60, 96 h) [nM] | VDR binding activity relative to 1α,25-dihydroxyvitamin D3 ([5]; compared to natural hormone) | Ki ([5]; full-length recombinant rat vitamin D receptor, read-out: Ki, competition with [3H]-1,25(OH)2D3 for binding to VDR) [nM] | VDR binding activity relative to standard 1α,25-(OH)2D3, in log ([5]; less activity than standard) |
| --- | --- | --- | --- | --- | --- | --- | --- | --- | --- |
| C=C1/C(=C\C=C2/CCC[C@]3(C)[C@@H]([C@H](C)CCCC(C)(C)O)CC[C@@H]23)C[C@@H](O)C[C@@H]1O [1α,25-dihydroxyvitamin D3, reference compound] | 3 | increased serum calcium levels | 0.08 | – | – | – | – | – | – |
| C[C@H](CCCC(C)(C)O)C1CCC2/C(=C/C=C(CCO)CCO)CCC[C@@]21C (some centres unmarked) [DA2HE, seco-A-2,19-dinor-1,25-dihydroxyvitamin D3] | – | lacks any bone calcium mobilization activity; also recorded: no mobilization of bone calcium | 40 | about 10 times less potent | relatively high intestinal calcium transport activity which increases in a dose dependent manner | 300 | about 10 times less activity | 0.4 | about one |
